Test results published in PMC11981937 (Nature, 2025).

Experiment: In vivo mortality (stray panel in source data sheet Fig. 3d)

With C[C@@]1(O)[C@H](O)[C@@H](CO)O[C@H]1n1ccc(N)nc1=O [2'CMC, reference compound] the “% Survival” value (2'CMC, d p.i. 0) was 100%, the “% Survival” value (2'CMC, d p.i. 1) was 100% and the “% Survival” value (2'CMC, d p.i. 2) was 100%. For the same compound, the “% Survival” value (2'CMC, d p.i. 3) was 100%, the “% Survival” value (2'CMC, d p.i. 4) was 100% and the “% Survival” value (2'CMC, d p.i. 5) was 100%. The “% Survival” value (2'CMC, d p.i. 6) was 100%, the “% Survival” value (2'CMC, d p.i. 7) was 100% and the “% Survival” value (2'CMC, d p.i. 8) was 100%. The “% Survival” value (2'CMC, d p.i. 9) was 100%, the “% Survival” value (2'CMC, d p.i. 10) was 100% and the “% Survival” value (2'CMC, d p.i. 11) was 100%. For the same compound, the “% Survival” value (2'CMC, d p.i. 12) was 100%, the “% Survival” value (2'CMC, d p.i. 13) was 90% and the “% Survival” value (2'CMC, d p.i. 14) was 80%. The “% Survival” value (2'CMC, d p.i. 15) was 80%, the “% Survival” value (2'CMC, d p.i. 16) was 80% and the “% Survival” value (2'CMC, d p.i. 17) was 80%. For the same compound, the “% Survival” value (2'CMC, d p.i. 18) was 60%, the “% Survival” value (2'CMC, d p.i. 19) was 60% and the “% Survival” value (2'CMC, d p.i. 20) was 60%. The “% Survival” value (2'CMC, d p.i. 21) was 60%, the “% Survival” value (2'CMC, d p.i. 22) was 60% and the “% Survival” value (2'CMC, d p.i. 23) was 60%. For the same compound, the “% Survival” value (2'CMC, d p.i. 24) was 50% and the “% Survival” value (2'CMC, d p.i. 25) was 50%.

For COc1cc(N[C@H](C(=O)c2c[nH]c3ccc(OC(F)(F)F)cc23)c2ccc(Cl)cc2OC)cc(S(C)(=O)=O)c1 [JNJ-1802], the “% Survival” value (802R_0.3, BID, d p.i. 0) was 100%, the “% Survival” value (802R_0.3, BID, d p.i. 1) was 100% and the “% Survival” value (802R_0.3, BID, d p.i. 2) was 100%. For the same compound, the “% Survival” value (802R_0.3, BID, d p.i. 3) was 100%, the “% Survival” value (802R_0.3, BID, d p.i. 4) was 100% and the “% Survival” value (802R_0.3, BID, d p.i. 5) was 100%. The “% Survival” value (802R_0.3, BID, d p.i. 6) was 100%, the “% Survival” value (802R_0.3, BID, d p.i. 7) was 100% and the “% Survival” value (802R_0.3, BID, d p.i. 8) was 100%. The “% Survival” value (802R_0.3, BID, d p.i. 9) was 100%, the “% Survival” value (802R_0.3, BID, d p.i. 10) was 100% and the “% Survival” value (802R_0.3, BID, d p.i. 11) was 100%. The “% Survival” value (802R_0.3, BID, d p.i. 12) was 100%, the “% Survival” value (802R_0.3, BID, d p.i. 13) was 100% and the “% Survival” value (802R_0.3, BID, d p.i. 14) was 100%. For the same compound, the “% Survival” value (802R_0.3, BID, d p.i. 15) was 100%, the “% Survival” value (802R_0.3, BID, d p.i. 16) was 100% and the “% Survival” value (802R_0.3, BID, d p.i. 17) was 90%. For the same compound, the “% Survival” value (802R_0.3, BID, d p.i. 18) was 90%, the “% Survival” value (802R_0.3, BID, d p.i. 19) was 90% and the “% Survival” value (802R_0.3, BID, d p.i. 20) was 90%. The “% Survival” value (802R_0.3, BID, d p.i. 21) was 90%, the “% Survival” value (802R_0.3, BID, d p.i. 22) was 90% and the “% Survival” value (802R_0.3, BID, d p.i. 23) was 90%. The “% Survival” value (802R_0.3, BID, d p.i. 24) was 90%, the “% Survival” value (802R_0.3, BID, d p.i. 25) was 90% and the “% Survival” value (802R_1, BID, d p.i. 0) was 100%. For the same compound, the “% Survival” value (802R_1, BID, d p.i. 1) was 100%, the “% Survival” value (802R_1, BID, d p.i. 2) was 100% and the “% Survival” value (802R_1, BID, d p.i. 3) was 100%. The “% Survival” value (802R_1, BID, d p.i. 4) was 100%, the “% Survival” value (802R_1, BID, d p.i. 5) was 100% and the “% Survival” value (802R_1, BID, d p.i. 6) was 100%. For the same compound, the “% Survival” value (802R_1, BID, d p.i. 7) was 100%, the “% Survival” value (802R_1, BID, d p.i. 8) was 100% and the “% Survival” value (802R_1, BID, d p.i. 9) was 100%. The “% Survival” value (802R_1, BID, d p.i. 10) was 100%, the “% Survival” value (802R_1, BID, d p.i. 11) was 100% and the “% Survival” value (802R_1, BID, d p.i. 12) was 100%. For the same compound, the “% Survival” value (802R_1, BID, d p.i. 13) was 100%, the “% Survival” value (802R_1, BID, d p.i. 14) was 100% and the “% Survival” value (802R_1, BID, d p.i. 15) was 100%. For the same compound, the “% Survival” value (802R_1, BID, d p.i. 16) was 100%, the “% Survival” value (802R_1, BID, d p.i. 17) was 100% and the “% Survival” value (802R_1, BID, d p.i. 18) was 100%. The “% Survival” value (802R_1, BID, d p.i. 19) was 100%, the “% Survival” value (802R_1, BID, d p.i. 20) was 100% and the “% Survival” value (802R_1, BID, d p.i. 21) was 100%. For the same compound, the “% Survival” value (802R_1, BID, d p.i. 22) was 100%, the “% Survival” value (802R_1, BID, d p.i. 23) was 100% and the “% Survival” value (802R_1, BID, d p.i. 24) was 100%. The “% Survival” value (802R_1, BID, d p.i. 25) was 100%, the “% Survival” value (802R_3, BID, d p.i. 0) was 100% and the “% Survival” value (802R_3, BID, d p.i. 1) was 100%. The “% Survival” value (802R_3, BID, d p.i. 2) was 100%, the “% Survival” value (802R_3, BID, d p.i. 3) was 100% and the “% Survival” value (802R_3, BID, d p.i. 4) was 100%. For the same compound, the “% Survival” value (802R_3, BID, d p.i. 5) was 100%, the “% Survival” value (802R_3, BID, d p.i. 6) was 100% and the “% Survival” value (802R_3, BID, d p.i. 7) was 100%. The “% Survival” value (802R_3, BID, d p.i. 8) was 100%, the “% Survival” value (802R_3, BID, d p.i. 9) was 100% and the “% Survival” value (802R_3, BID, d p.i. 10) was 100%. For the same compound, the “% Survival” value (802R_3, BID, d p.i. 11) was 100%, the “% Survival” value (802R_3, BID, d p.i. 12) was 100% and the “% Survival” value (802R_3, BID, d p.i. 13) was 100%. For the same compound, the “% Survival” value (802R_3, BID, d p.i. 14) was 100%, the “% Survival” value (802R_3, BID, d p.i. 15) was 100% and the “% Survival” value (802R_3, BID, d p.i. 16) was 100%. For the same compound, the “% Survival” value (802R_3, BID, d p.i. 17) was 100%, the “% Survival” value (802R_3, BID, d p.i. 18) was 100% and the “% Survival” value (802R_3, BID, d p.i. 19) was 100%. The “% Survival” value (802R_3, BID, d p.i. 20) was 100%, the “% Survival” value (802R_3, BID, d p.i. 21) was 100% and the “% Survival” value (802R_3, BID, d p.i. 22) was 90%. The “% Survival” value (802R_3, BID, d p.i. 23) was 90%, the “% Survival” value (802R_3, BID, d p.i. 24) was 80% and the “% Survival” value (802R_3, BID, d p.i. 25) was 80%. For the same compound, the “% Survival” value (802R_10, BID, d p.i. 0) was 100%, the “% Survival” value (802R_10, BID, d p.i. 1) was 100% and the “% Survival” value (802R_10, BID, d p.i. 2) was 100%. The “% Survival” value (802R_10, BID, d p.i. 3) was 100%, the “% Survival” value (802R_10, BID, d p.i. 4) was 100% and the “% Survival” value (802R_10, BID, d p.i. 5) was 100%. For the same compound, the “% Survival” value (802R_10, BID, d p.i. 6) was 100%, the “% Survival” value (802R_10, BID, d p.i. 7) was 100% and the “% Survival” value (802R_10, BID, d p.i. 8) was 100%. The “% Survival” value (802R_10, BID, d p.i. 9) was 100%, the “% Survival” value (802R_10, BID, d p.i. 10) was 100% and the “% Survival” value (802R_10, BID, d p.i. 11) was 100%. For the same compound, the “% Survival” value (802R_10, BID, d p.i. 12) was 100%, the “% Survival” value (802R_10, BID, d p.i. 13) was 100% and the “% Survival” value (802R_10, BID, d p.i. 14) was 100%. For the same compound, the “% Survival” value (802R_10, BID, d p.i. 15) was 80%, the “% Survival” value (802R_10, BID, d p.i. 16) was 80% and the “% Survival” value (802R_10, BID, d p.i. 17) was 80%. For the same compound, the “% Survival” value (802R_10, BID, d p.i. 18) was 80%, the “% Survival” value (802R_10, BID, d p.i. 19) was 80% and the “% Survival” value (802R_10, BID, d p.i. 20) was 80%. For the same compound, the “% Survival” value (802R_10, BID, d p.i. 21) was 80%, the “% Survival” value (802R_10, BID, d p.i. 22) was 80% and the “% Survival” value (802R_10, BID, d p.i. 23) was 80%. The “% Survival” value (802R_10, BID, d p.i. 24) was 80% and the “% Survival” value (802R_10, BID, d p.i. 25) was 80%.
